How the values were obtained:
Assay type in all cases: functional, cell-based
SK-BR-3 = test: Cytotoxicity against human SK-BR-3 cells after 72 hrs by WST-8 assay; conditions: SK-BR-3, 72 h
[1] = Cytotoxicity against human COLO320DM cells after 72 hrs by WST-8 assay; conditions: COLO 320DM
PC-3 = test: Cytotoxicity against human PC3 cells after 72 hrs by WST-8 assay; conditions: PC-3, 72 h
MCF7 = test: Cytotoxicity against human MCF7 cells after 72 hrs by WST-8 assay; conditions: MCF7, 72 h

Compound	IC50 (SK-BR-3)	IC50 [1]	IC50 (PC-3)	IC50 (MCF7)
COc1cc2c(c3c1C(C)(C)C(C)O3)C(=O)CC(c1ccccc1)O2 (configuration not stated)	14 µM	18.6 µM	10.4 µM	29.5 µM
COc1cc(O)c2c(c1)O[C@H](c1ccccc1)CC2=O [PINOSTROBIN]	94.3 µM	> 100 µM	86.7 µM	84.9 µM
COc1cc(O)c2c(c1CC=C(C)C)OC(c1ccccc1)CC2=O (configuration not stated)	34.4 µM	24.2 µM	35.3 µM	30.3 µM
